Data published in the supplement of paper PMC10307832.

Columns and labels:
Test in all cases: relative viability (nuclei count vs DMSO), 5 days (fraction); higher = more cells survive
[1] = compound: C1=CC=C2C(=C1)N=C(S2)C(C#N)C3=NC(=NC=C3)NCCC4=CN=CC=C4 + CC(=O)Nc1cccc(-n2c(=O)n(C3CC3)c(=O)c3c(Nc4ccc(I)cc4F)n(C)c(=O)c(C)c32)c1 [Trametinib] (partner 0.02 µM)
How it was run: (§1)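 Dosing by pin tool came one day after lung cancer cell lines were seeded in 1536-well plates, using either one drug or a fixed anchor-drug dose plus five library-drug doses (not always all listed) in √10 steps. After 5 days, nuclei were counted on 4× images. Relative viability is treated-well nuclei count divided by vehicle-well nuclei count, and values are medians of duplicate plates.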

NVP-TAE684 + Navitoclax = compound: COc1cc(N2CCC(N3CCN(C)CC3)CC2)ccc1Nc1ncc(Cl)c(Nc2ccccc2S(=O)(=O)C(C)C)n1 [NVP-TAE684] + CC1(C)CCC(c2ccc(Cl)cc2)=C(CN2CCN(c3ccc(C(=O)NS(=O)(=O)c4ccc(N[C@H](CCN5CCOCC5)CSc5ccccc5)c(S(=O)(=O)C(F)(F)F)c4)cc3)CC2)C1 [Navitoclax] (partner 0.5 µM)
How it was run: as §1

CUDC-101 + Lapatinib = compound: C#Cc1cccc(Nc2ncnc3cc(OC)c(OCCCCCCC(=O)NO)cc23)c1 [CUDC-101] + CS(=O)(=O)CCNCc1ccc(-c2ccc3ncnc(Nc4ccc(OCc5cccc(F)c5)c(Cl)c4)c3c2)o1 [Lapatinib] (partner 2 µM)
How it was run: as §1

Vandetanib + Lapatinib = compound: COc1cc2/c(=N/c3ccc(Br)cc3F)nc[nH]c2cc1OCC1CCN(C)CC1 [Vandetanib] + CS(=O)(=O)CCNCc1ccc(-c2ccc3ncnc(Nc4ccc(OCc5cccc(F)c5)c(Cl)c4)c3c2)o1 [Lapatinib] (partner 2 µM)
How it was run: as §1

Row | Cell Line | relative viability ([1]; first compound 0.005 µM) | relative viability ([1]; first compound 0.01581 µM) | relative viability ([1]; first compound 0.05 µM) | relative viability ([1]; first compound 0.1581 µM) | relative viability ([1]; first compound 0.5 µM) | relative viability (NVP-TAE684 + Navitoclax; first compound 0.2 µM) | relative viability (NVP-TAE684 + Navitoclax; first compound 0.6325 µM) | relative viability (NVP-TAE684 + Navitoclax; first compound 2 µM) | relative viability (CUDC-101 + Lapatinib; first compound 0.01 µM) | relative viability (CUDC-101 + Lapatinib; first compound 0.03162 µM) | relative viability (CUDC-101 + Lapatinib; first compound 0.1 µM) | relative viability (CUDC-101 + Lapatinib; first compound 0.3162 µM) | relative viability (CUDC-101 + Lapatinib; first compound 1 µM) | relative viability (Vandetanib + Lapatinib; first compound 0.02 µM) | relative viability (Vandetanib + Lapatinib; first compound 0.06325 µM) | relative viability (Vandetanib + Lapatinib; first compound 0.2 µM) | relative viability (Vandetanib + Lapatinib; first compound 0.6325 µM) | relative viability (Vandetanib + Lapatinib; first compound 2 µM)
1 | NCI-H2009 | 0.26 | 0.264 | 0.26 | 0.314 | 0.334 | 1.2 | 1.15 | 0.95 | 0.924 | 1 | 1.07 | 0.925 | 0.87 | 0.848 | 0.887 | 1.04 | 0.981 | 1.06
2 | NCI-H1395 | 0.983 | – | 0.949 | 1.2 | 0.979 | 1.79 | 1.01 | 1.02 | 1.04 | 1.13 | 1.05 | 0.862 | 0.661 | 0.963 | 0.875 | 1.03 | 0.936 | 0.864
3 | NCI-H1650 | 0.49 | 0.492 | 0.604 | 0.715 | 0.513 | – | 1.08 | 0.545 | 0.833 | 0.72 | 0.963 | 0.772 | 0.48 | 0.704 | 0.734 | – | 0.988 | 0.765
4 | NCI-H2085 | 0.528 | 0.652 | 0.521 | 0.576 | 0.481 | 1.01 | 1.06 | 0.874 | 0.817 | 0.686 | 0.826 | 0.752 | 0.502 | 0.749 | 0.706 | 0.837 | 0.868 | 0.748
5 | NCI-H1666 | 0.923 | 0.838 | 0.907 | 0.836 | 0.847 | 0.932 | 0.919 | 0.566 | 0.64 | 0.692 | 0.583 | 0.664 | 0.38 | 0.59 | 0.658 | 0.444 | 0.739 | 0.629
6 | NCI-H1993 | 0.374 | 0.516 | 0.458 | 0.514 | 0.466 | – | 0.791 | 0.696 | 0.758 | 0.899 | 1.03 | 0.995 | 0.635 | 0.728 | 0.801 | 0.663 | 0.923 | 0.786
7 | NCI-H1437 | 0.503 | 0.55 | 0.52 | 0.539 | 0.427 | 1.31 | 1.12 | 0.631 | 0.884 | 0.792 | 0.773 | 0.796 | 0.355 | 0.758 | 0.767 | 0.764 | 0.76 | 0.806
8 | ABC-1 | – | – | – | – | – | – | – | – | 1.06 | 1.05 | 1.21 | – | 1.26 | 1.48 | 1.29 | 1.12 | 1.37 | 0.961
9 | NCI-H727 | 0.39 | 0.364 | 0.399 | 0.381 | 0.407 | 0.381 | 0.331 | 0.153 | 0.825 | 0.531 | 0.844 | 0.801 | 0.678 | 0.847 | 0.661 | 0.786 | 0.91 | 0.625
10 | PC-3 [JPC-3] | 0.689 | – | 0.642 | 0.737 | 0.636 | 0.862 | 0.822 | 0.658 | 0.419 | 0.462 | 0.443 | 0.364 | 0.32 | 0.442 | 0.482 | 0.49 | 0.458 | 0.41
11 | NCI-H650 | 0.969 | 0.968 | 0.863 | 1.04 | 1.04 | – | – | – | 0.947 | 1.1 | 0.899 | 0.582 | 0.405 | 1.06 | 1.04 | 0.636 | 0.896 | 0.308
12 | IA-LM | – | – | – | – | – | 0.762 | 0.641 | 0.687 | 0.999 | 0.666 | 0.605 | 0.653 | 0.305 | 0.762 | 0.737 | 0.953 | 0.798 | 0.987
13 | NCI-H2342 | 0.733 | 0.89 | 0.867 | 0.798 | 0.844 | – | – | – | – | – | – | – | – | – | – | – | – | –
14 | NCI-H358 | 0.125 | 0.132 | 0.113 | 0.139 | 0.15 | – | – | – | 0.553 | 0.397 | 0.517 | 0.489 | 0.29 | 0.38 | 0.397 | 0.445 | 0.419 | 0.434
15 | NCI-H522 | 0.98 | 0.846 | 0.766 | 0.755 | 0.761 | – | – | – | – | – | – | – | – | – | – | – | – | –
16 | NCI-H661 | 0.423 | 0.535 | 0.542 | 0.674 | 0.589 | – | – | – | 0.603 | 0.449 | 0.525 | 0.594 | 0.506 | 0.547 | 0.532 | 0.555 | 0.607 | 0.365
17 | Calu-6 | – | – | – | – | – | 0.776 | 0.694 | 0.269 | 1.08 | 1.12 | 1.09 | 0.791 | 0.658 | 1.08 | 0.966 | 1.12 | 0.94 | 1.07
18 | NCI-H1703 | – | – | – | – | – | 1.17 | 1.04 | 0.215 | 1.31 | 1.03 | 1.07 | 1.18 | 0.765 | 1.13 | – | 1.24 | 0.932 | 0.417
19 | NCI-H441 | 0.444 | 0.409 | 0.432 | 0.49 | 0.307 | 0.472 | 0.583 | 0.319 | – | – | – | – | – | – | – | – | – | –
20 | ChaGo-K-1 | 0.683 | 0.949 | 0.913 | 0.957 | 0.715 | 1.54 | 0.644 | 1.03 | – | – | – | – | – | – | – | – | – | –
21 | NCI-H1563 | – | – | – | – | – | – | – | – | 0.846 | 0.814 | 1.17 | 1.13 | 0.877 | 0.957 | 0.882 | 1.39 | 0.953 | 1.03
22 | EBC-1 | – | – | – | – | – | 0.323 | 0.247 | 0.245 | 0.224 | 0.212 | 0.214 | 0.215 | 0.196 | 0.212 | 0.204 | 0.19 | 0.211 | 0.183
23 | NCI-H1648 | – | 0.486 | – | 0.499 | 0.498 | – | – | – | – | – | – | – | – | – | – | – | – | –
